Assay results taken from US20010047099A1, “4-aminopicolinates and their use as herbicides” (priority 2000, published 2001).

Experiments:
[1] = system: pigweed (Amaranthus retroflexus); assay: Preemergence herbicidal activity; format: in vivo; settings: Table 6 (headed Post-emergent; text: preemergence), after 3 weeks; for pest or weed control at 280 ppm: rate 280 ppm
Text: (§1) Seeds of the desired test plant species were planted in a soil matrix prepared by mixing a loam soil (43 percent silt, 19 percent clay, and 38 percent sand, with a pH of about 8.1 and an organic matter content of bout 1.5 percent) and sand in a 70 to 30 ratio. The soil matrix was contained in plastic pots with a surface area of 113 square centimeters. When required to ensure good germination and healthy plants. a fungicide treatment and/or other chemical or physical treatment was applied.
(§2) A weighed amount, determined by the highest rate to be tested, of each test compound was placed in a 20 mL glass vial and was dissolved in 4 mL of a 97:3 v/v (volume/volume) mixture of acetone and dimethyl sulfoxide to obtain concentrated stock solutions. […] The stock solutions obtained were diluted with a 99.9:0.1 mixture of water and Tween® […] surfactant to obtain application solutions of known concentration. The solutions containing the highest concentration to be tested were prepared by diluting 2 mL aliquots of the stock solution with 15 mL of the mixture and lower concentrations were prepared by serial dilution of the stock solution. A 2.5 mL aliquot of each solution of known concentration was sprayed evenly onto the soil surface (113 sq. cm) of each seeded pot using a Cornwall 5.0 mL glass syringe fitted with a TeeJet TN-3 hollow cone nozzle to obtain thorough coverage of the soil in each pot. Control pots were sprayed in the same manner with the aqueous mixture.
(§3) The treated pots and control pots were placed in a greenhouse maintained with an approximate 15 hr photoperiod and temperatures of about 23-29° C. during the day and 22-28° C. during the night. Nutrients and water were added on a regular basis and supplemental lighting was provided with overhead metal halide 1000-Watt lamps as necessary. The water was added by top-irrigation. After 3 weeks the condition of the test plants that germinated and grew as compared with that of the untreated plants that germinated and grew was determined visually and scored on a scale of 0 to 100 percent where 0 corresponds to no injury and 100 corresponds to complete kill or no germination.

[2] = system: velvetleaf (Abutilon theophrasti); assay: Preemergence herbicidal activity; format: in vivo; settings: Table 6 (headed Post-emergent; text: preemergence), after 3 weeks; for pest or weed control at 280 ppm: rate 280 ppm
Text: as §1, §2, §3

[3] = system: morningglory (Ipomoea hederacea); assay: Preemergence herbicidal activity; format: in vivo; settings: Table 6 (headed Post-emergent; text: preemergence), after 3 weeks; for pest or weed control at 280 ppm: rate 280 ppm
Text: as §1, §2, §3

[4] = system: wild buckwheat (Polygonum convolvulus); assay: Postemergence herbicidal activity; format: in vivo; settings: Table 1, visual, after 2 weeks; for pest or weed control at 250 ppm / pest or weed control at 125 ppm: Fallopia convolvulus, post-emergence, 336 h, read-out: Post-emergent % Control POLCO; for pest or weed control at 125 ppm: rate 125 ppm
Experimental: (§4) Seeds of the desired test plant species were planted in Grace-Sierra MetroMix® 306 planting mixture, which typically has a pH of 6.0 to 6.8 and an organic matter content of about 30 percent, in plastic pots with a surface area of 64 square centimeters. When required to ensure good germination and healthy plants, a fungicide treatment and/or other chemical or physical treatment was applied. The plants were grown for 7-21 days in a greenhouse with an approximate 15 hr photoperiod which was maintained at about 23-29° C. during the day and 22-28° C. during the night. Nutrients and water were added on a regular basis and supplemental lighting was provided with overhead metal halide 1000-Watt lamps as necessary. The plants were employed for testing when they reached the first or second true leaf stage.
(§5) A weighed amount, determined by the highest rate to be tested, of each test compound was placed in a 20 mL glass vial and was dissolved in 4 mL of a 97:3 v/v (volume/volume) mixture of acetone and dimethyl sulfoxide (DMSO) to obtain concentrated stock solutions. […] The concentrated stock solutions obtained were diluted with an aqueous mixture containing acetone, water, isopropyl alcohol, DMSO, Atplus 411F crop oil concentrate, and Triton X-155 surfactant in a 48.5:39:10:1.5:1.0:0.02 v/v ratio to obtain spray solutions of known concentration. The solutions containing the highest concentration to be tested were prepared by diluting 2 mL aliquots of the stock solution with 13 mL of the mixture and lower concentrations were prepared by serial dilution of the stock solution. Approximately 1.5 mL aliquots of each solution of known concentration were sprayed evenly onto each of the test plant pots using a DeVilbiss atomizer driven by compressed air pressure of 2 to 4 psi ([…]) to obtain thorough coverage of each plant. Control plants were sprayed in the same manner with the aqueous mixture. In this test an application rate of 1 ppm results in the application of approximately 1 g/Ha.
(§6) The treated plants and control plants were placed in a greenhouse as described above and watered by sub-irrigation to prevent wash-off of the test compounds. After 2 weeks the condition of the test plants as compared with that of the untreated plants was determined visually and scored on a scale of 0 to 100 percent where 0 corresponds to no injury and 100 corresponds to complete kill.

[5] = system: cocklebur (Xanthium strumarium); assay: Postemergence herbicidal activity; format: in vivo; settings: Table 1, visual, after 2 weeks; for pest or weed control at 250 ppm / pest or weed control at 125 ppm: Xanthium strumarium, post-emergence, 336 h, read-out: Post-emergent % Control XANST; for pest or weed control at 125 ppm: rate 125 ppm
Experimental: as §4, §5, §6

[6] = system: chickweed (Stellaria media); assay: Postemergence herbicidal activity; format: in vivo; settings: Table 1, visual, after 2 weeks; for pest or weed control at 250 ppm / pest or weed control at 125 ppm: Stellaria media, post-emergence, 336 h, read-out: Post-emergent % Control STEME; for pest or weed control at 125 ppm: rate 125 ppm
Experimental: as §4, §5, §6

[7] = Amaranthus retroflexus, 504 h, read-out: % Control AMARE
[8] = Abutilon theophrasti, 504 h, read-out: % Control ABUTH
[9] = Ipomoea, 504 h, read-out: % Control IPOHE
[10] = Amaranthus retroflexus, 504 h, rate 560 ppm, read-out: % Control AMARE
[11] = Abutilon theophrasti, 504 h, rate 560 ppm, read-out: % Control ABUTH
[12] = Ipomoea, 504 h, rate 560 ppm, read-out: % Control IPOHE

Compound | melting point | pest or weed control at 250 ppm ([4]; rate 250 ppm) [%] | pest or weed control at 250 ppm ([5]; rate 250 ppm) [%] | pest or weed control at 250 ppm ([6]; rate 250 ppm) [%] | pest or weed control at 560 ppm [1, 10] [%] | pest or weed control at 560 ppm [2, 11] [%] | pest or weed control at 560 ppm [3, 12] [%] | other results
CCCCOCCOC(=O)c1nc(Cl)cc(N)c1Cl (hydrate or solvate) [Compound 10, butoxyethyl 4-amino-3,6-dichloropyridine-2-carboxylate] | 64 to 67 °C | – | – | – | – | – | – | –
Nc1c(Cl)c(C(=O)O)nc(Cl)c1C(F)(F)F [Compound 21, 4-Amino-3,6-dichloro-5-trifluoromethylpyridine-2-carboxylic acid] | 173 °C | 20 | 70 | 20 | 80 | 80 | 90 | –
COc1c(Cl)nc(C(=O)O)c(Cl)c1N [Compound 22, 4-Amino-3,6-dichloro-5-methoxypyridine-2-carboxylic acid] | 154 to 156 °C | 100 | 80 | 90 | 100 | 100 | 100 | –
CCCCNc1cc(Cl)nc(C(=O)O)c1Cl [Compound 29, 4-N-butylamino-3,6-dichloropyridine-2-carboxylic acid] | 96 to 97 °C | 90 | 95 | 90 | 100 | 100 | 100 | –
O=C(O)c1nc(Cl)cc(N2CCCC2)c1Cl [Compound 36, 4-pyrrolidino-3,6-dichloropyridine-2-carboxylic acid] | 153 to 155 °C | – | – | – | 80 | 95 | 80 | pest or weed control at 125 ppm [4]: 80%; pest or weed control at 125 ppm [5]: 50%; pest or weed control at 125 ppm [6]: 40%
Nc1cc(Cl)nc(C(=O)O)c1Br [Compound 44, 4-Amino-3-bromo-6-chloropyridine-2-carboxylic acid] | 175 °C (dec.) | – | – | – | 100 | 100 | 100 | pest or weed control at 125 ppm [4]: 95%; pest or weed control at 125 ppm [5]: 90%; pest or weed control at 125 ppm [6]: 90%
Nc1c(Cl)c(C(=O)O)nc(C(F)(F)F)c1Cl [Compound 45, 4-Amino-3,5-dichloro-6-trifluoromethylpyridine-2-carboxylic acid] | 178 °C (dec.) | 80 | 90 | 0 | – | – | – | pest or weed control at 125 ppm ([1]; Amaranthus retroflexus, 504 h, rate 125 ppm, read-out: % Control AMARE): 100%; pest or weed control at 125 ppm ([2]; Abutilon theophrasti, 504 h, rate 125 ppm, read-out: % Control ABUTH): 90%; pest or weed control at 125 ppm ([3]; Ipomoea, 504 h, rate 125 ppm, read-out: % Control IPOHE): 100%
N,N-diacetyl 4-amino-3,6-dichloropyridine-2-carboxylate [Compound 13] | – | – | – | – | – | – | – | % Control AMARE ([1]; rate 560 ppm): 100%; % Control ABUTH ([2]; rate 560 ppm): 95%; % Control IPOHE ([3]; rate 560 ppm): 95%; Post-emergent % Control POLCO ([4]; rate 250 ppm): 80%; Post-emergent % Control XANST ([5]; rate 250 ppm): 95%; Post-emergent % Control STEME ([6]; rate 250 ppm): 100%

Further lines, with some results ahead:

melting point | Compound | pest or weed control at 250 ppm ([4]; rate 250 ppm) [%] | pest or weed control at 250 ppm ([5]; rate 250 ppm) [%] | pest or weed control at 250 ppm ([6]; rate 250 ppm) [%] | pest or weed control at 560 ppm [1, 10] [%] | pest or weed control at 560 ppm [2, 11] [%] | pest or weed control at 560 ppm [3, 12] [%] | other results
55 °C | CCCCC(CC)COC(=O)c1nc(Cl)cc(N)c1Cl (centres unmarked) [Compound 2, 2-Ethylhexyl 4-amino-3,6-dichloropyridine-2-carboxylate] | 100 | 95 | 80 | – | – | – | pest or weed control at 280 ppm [1, 7]: 100%; pest or weed control at 280 ppm [2, 8]: 100%; pest or weed control at 280 ppm [3, 9]: 100%
71 to 73 °C | CCCCCOC(=O)c1nc(Cl)cc(N)c1Cl [Compound 8, n-pentyl 4-amino-3,6-dichloropyridine-2-carboxylate] | 100 | 100 | 90 | – | – | – | pest or weed control at 280 ppm [1, 7]: 100%; pest or weed control at 280 ppm [2, 8]: 100%; pest or weed control at 280 ppm [3, 9]: 100%
240 to 241 °C | NC(=O)c1nc(Cl)cc(N)c1Cl [Compound 11, 4-Amino-3,6-dichloropyridine-2-carboxamide] | – | – | – | 0 | 85 | 85 | pest or weed control at 125 ppm [4]: 95%; pest or weed control at 125 ppm [5]: 80%; pest or weed control at 125 ppm [6]: 85%
205 °C (dec.) | Nc1cc(Br)nc(C(=O)O)c1Br [Compound 17, 4-Amino-3,6-dibromopyridine-2-carboxylic acid] | 100 | 100 | 80 | 100 | 100 | 100 | –
127 to 128 °C | COC(=O)c1nc(Cl)c([N+](=O)[O-])c(N)c1Cl [Compound 25, Methyl 4-amino-3,6-dichloro-5-nitropyridine-2-carboxylate] | 50 | 60 | 50 | – | – | – | –
84 to 86 °C | Cc1c(Br)nc(C(=O)O)c(Cl)c1N=[N+]=[N-] [Compound 38, Methyl 4-azido-6-bromo-3-chloropyridine-2-carboxylic acid] | – | – | – | – | – | – | –
192 to 193 °C | O=C(O)c1nc(Cl)cc([N+](=O)[O-])c1Cl [Compound 39, 4-Nitro-3,6-dichloropyridine-2-carboxylic acid] | – | – | – | 100 | 100 | 100 | pest or weed control at 125 ppm [4]: 90%; pest or weed control at 125 ppm [5]: 85%; pest or weed control at 125 ppm [6]: 30%
